From US6423689B1, “Peptidyl calcium channel blockers” (Warner-Lambert Company, priority 1997, dated 2002)
pIC50: −log10 of the molar value.

Assays:
[1] = biological target: T1, N-type Ca2+ channels in IMR-32 cells (Homo sapiens, UniProt Q00975); assay: Inhibition of N-type calcium flux in IMR-32 cells (Indo-1 fluorescence, nitrendipine present); assay type: cell-based; details: for inhibition at 1 µM / inhibition at 10 µM: IMR-32; for pIC50: IMR-32 cells, 5 μM nitrendipine, K+ depolarization
T1 construct: host or cells: IMR-32 cells, differentiated with dibutyryl cAMP and bromodeoxyuridine
Outline: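 With L-type flux blocked by 5 μM nitrendipine, N-type Ca2+ entry was read as the Indo-1 emission ratio (400/490 nm, excitation 350 nm) at 30° C after KCl depolarization.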

[2] = biological target: T2, N-type Ca2+ channels in superior cervical ganglion (SCG) neurons (Rattus norvegicus, UniProt Q02294); assay: Whole-cell voltage clamp, N-type Ca2+ current in SCG neurons; assay type: cell-based; details: for pIC50: read-out: Inhibition of N-type Ca2+ Current IC50
T2 construct: from tissue
T2 sequence (Q02294 whole entry): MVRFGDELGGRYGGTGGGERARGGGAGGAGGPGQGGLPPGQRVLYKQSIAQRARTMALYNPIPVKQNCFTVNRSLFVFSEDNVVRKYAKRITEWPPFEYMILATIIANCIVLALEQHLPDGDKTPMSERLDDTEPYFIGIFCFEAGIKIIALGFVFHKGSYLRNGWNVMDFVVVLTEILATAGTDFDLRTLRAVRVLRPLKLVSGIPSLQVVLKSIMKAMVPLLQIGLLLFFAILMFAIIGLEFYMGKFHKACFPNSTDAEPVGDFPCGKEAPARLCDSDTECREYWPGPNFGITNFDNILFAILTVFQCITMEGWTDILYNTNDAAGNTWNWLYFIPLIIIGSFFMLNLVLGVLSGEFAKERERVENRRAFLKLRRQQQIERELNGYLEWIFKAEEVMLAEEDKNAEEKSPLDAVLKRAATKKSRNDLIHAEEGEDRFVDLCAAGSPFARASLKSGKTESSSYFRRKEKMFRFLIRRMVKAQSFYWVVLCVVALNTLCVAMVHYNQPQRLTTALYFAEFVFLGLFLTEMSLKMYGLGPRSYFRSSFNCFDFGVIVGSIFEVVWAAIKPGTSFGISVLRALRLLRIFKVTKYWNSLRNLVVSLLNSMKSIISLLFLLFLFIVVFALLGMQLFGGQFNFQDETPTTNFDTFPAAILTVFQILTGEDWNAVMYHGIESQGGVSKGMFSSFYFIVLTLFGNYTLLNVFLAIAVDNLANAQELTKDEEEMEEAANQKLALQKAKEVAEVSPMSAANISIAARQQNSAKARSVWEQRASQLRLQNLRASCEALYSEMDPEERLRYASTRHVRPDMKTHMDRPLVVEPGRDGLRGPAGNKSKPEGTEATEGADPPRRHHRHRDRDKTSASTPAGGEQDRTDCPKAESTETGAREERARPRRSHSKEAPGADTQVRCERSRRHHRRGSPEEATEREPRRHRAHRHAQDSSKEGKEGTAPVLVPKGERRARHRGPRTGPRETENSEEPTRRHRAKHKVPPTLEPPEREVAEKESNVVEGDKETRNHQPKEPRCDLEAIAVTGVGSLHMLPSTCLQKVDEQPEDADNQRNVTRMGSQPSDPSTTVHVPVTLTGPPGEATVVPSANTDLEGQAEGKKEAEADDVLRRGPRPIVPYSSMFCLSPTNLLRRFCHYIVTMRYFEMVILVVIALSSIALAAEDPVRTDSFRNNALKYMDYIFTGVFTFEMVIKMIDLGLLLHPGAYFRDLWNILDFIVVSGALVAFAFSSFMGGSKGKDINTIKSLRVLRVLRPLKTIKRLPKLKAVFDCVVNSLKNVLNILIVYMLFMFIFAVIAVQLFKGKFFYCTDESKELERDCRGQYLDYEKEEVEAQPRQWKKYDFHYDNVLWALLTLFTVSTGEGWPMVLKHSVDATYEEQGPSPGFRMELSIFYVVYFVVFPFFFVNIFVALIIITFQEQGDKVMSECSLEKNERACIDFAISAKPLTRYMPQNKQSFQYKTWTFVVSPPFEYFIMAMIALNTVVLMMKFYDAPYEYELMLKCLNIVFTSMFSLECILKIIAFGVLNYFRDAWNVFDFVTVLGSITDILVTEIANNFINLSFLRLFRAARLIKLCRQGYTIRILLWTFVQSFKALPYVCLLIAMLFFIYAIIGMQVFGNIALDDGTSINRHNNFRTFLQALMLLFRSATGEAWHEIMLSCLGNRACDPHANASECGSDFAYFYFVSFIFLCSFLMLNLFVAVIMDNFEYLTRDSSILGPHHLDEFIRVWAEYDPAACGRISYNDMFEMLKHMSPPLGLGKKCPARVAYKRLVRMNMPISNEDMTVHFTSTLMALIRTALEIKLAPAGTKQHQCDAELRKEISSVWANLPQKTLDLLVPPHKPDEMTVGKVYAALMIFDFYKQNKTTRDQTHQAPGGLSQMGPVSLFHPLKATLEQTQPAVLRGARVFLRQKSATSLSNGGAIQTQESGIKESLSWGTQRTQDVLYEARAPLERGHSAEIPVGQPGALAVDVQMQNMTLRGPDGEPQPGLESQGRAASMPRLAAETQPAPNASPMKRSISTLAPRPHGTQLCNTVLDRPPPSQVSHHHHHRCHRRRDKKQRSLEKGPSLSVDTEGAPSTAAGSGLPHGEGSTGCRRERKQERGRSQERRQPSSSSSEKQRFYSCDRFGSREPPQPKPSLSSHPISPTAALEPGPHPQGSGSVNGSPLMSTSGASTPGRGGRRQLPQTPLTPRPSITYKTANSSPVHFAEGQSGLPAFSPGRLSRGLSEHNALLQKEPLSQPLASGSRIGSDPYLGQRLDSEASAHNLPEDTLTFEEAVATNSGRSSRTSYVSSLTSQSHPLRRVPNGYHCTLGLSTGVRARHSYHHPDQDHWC
T2 sequence (P54290 25-944 partner limits assumed): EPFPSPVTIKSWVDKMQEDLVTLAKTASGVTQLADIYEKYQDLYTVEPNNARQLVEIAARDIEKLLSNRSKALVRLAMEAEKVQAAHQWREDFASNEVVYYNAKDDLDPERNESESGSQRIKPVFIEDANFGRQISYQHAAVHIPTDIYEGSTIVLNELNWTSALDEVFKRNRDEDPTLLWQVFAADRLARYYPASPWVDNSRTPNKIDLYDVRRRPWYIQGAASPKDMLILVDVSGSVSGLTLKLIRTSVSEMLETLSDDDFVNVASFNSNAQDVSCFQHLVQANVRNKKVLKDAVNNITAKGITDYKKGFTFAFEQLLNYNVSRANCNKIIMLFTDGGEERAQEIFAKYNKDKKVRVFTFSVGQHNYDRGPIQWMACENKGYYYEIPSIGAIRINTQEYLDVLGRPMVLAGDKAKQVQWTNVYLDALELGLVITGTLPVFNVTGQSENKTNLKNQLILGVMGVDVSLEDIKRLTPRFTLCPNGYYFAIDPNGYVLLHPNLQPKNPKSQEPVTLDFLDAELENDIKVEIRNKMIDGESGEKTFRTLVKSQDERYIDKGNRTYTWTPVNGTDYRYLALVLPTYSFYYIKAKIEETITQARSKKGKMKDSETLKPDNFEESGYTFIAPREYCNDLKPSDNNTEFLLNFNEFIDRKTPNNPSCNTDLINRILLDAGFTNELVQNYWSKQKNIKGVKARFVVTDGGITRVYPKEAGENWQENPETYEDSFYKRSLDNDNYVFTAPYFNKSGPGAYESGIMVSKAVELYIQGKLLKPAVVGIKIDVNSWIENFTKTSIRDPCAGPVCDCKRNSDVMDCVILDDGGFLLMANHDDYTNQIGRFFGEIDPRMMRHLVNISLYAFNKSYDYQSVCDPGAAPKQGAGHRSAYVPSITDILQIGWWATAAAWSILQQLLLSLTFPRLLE
T2 sequence (P54290 945-1091 partner limits assumed): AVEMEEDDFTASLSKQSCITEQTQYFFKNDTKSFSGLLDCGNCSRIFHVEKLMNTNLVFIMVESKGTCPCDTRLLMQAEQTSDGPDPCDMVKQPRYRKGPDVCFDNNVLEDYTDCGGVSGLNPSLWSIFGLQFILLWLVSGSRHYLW
T2 sequence (P54287 whole entry partner): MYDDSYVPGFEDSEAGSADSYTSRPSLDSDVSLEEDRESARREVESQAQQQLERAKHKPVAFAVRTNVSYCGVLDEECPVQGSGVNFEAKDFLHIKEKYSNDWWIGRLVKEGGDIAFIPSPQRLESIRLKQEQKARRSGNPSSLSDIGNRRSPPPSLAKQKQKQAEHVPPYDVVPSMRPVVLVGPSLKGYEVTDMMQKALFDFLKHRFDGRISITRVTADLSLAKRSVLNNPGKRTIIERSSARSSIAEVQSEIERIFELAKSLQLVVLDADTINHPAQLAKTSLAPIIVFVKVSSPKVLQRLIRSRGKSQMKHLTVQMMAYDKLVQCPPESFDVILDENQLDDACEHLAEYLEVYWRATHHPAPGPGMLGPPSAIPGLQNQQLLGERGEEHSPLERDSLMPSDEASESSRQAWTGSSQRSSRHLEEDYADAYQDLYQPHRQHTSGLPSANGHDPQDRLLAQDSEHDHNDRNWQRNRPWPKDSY
Method: (§1) Electrophysiological techniques were used to measure the effects of experimental compounds on voltage-gated Ca^2+, Na^+ and K^+ channels. […] Sodium and potassium channel currents were measured from acutely dissociated SCG neurons.
(§2) Dissociation of the neurons from the ganglia was accomplished using a 30 to 45 minute treatment in 0.25% trypsin, similar to methods outlined in Higgins, et al. [see Higgins D., et al. “Tissue culture of mammalian autonomic neurons.” In Banker G. and Goslin K. (Eds), Culturing Nerve Cells, Cambridge, Mass., MIT Press (1991)].
(§3) Ca^2+, Na^+ and K^+ channel currents in SCG neurons were measured using conventional single electrode whole-cell voltage-clamp techniques, outlined in Hamill, et al., (see Hamill O.P., et al. “Improved patch-clamp techniques for high resolution current recordings from cells and cell-free membrane patches”. Pflugers Arch. 1981;391:85-100) For Ca^2+ channel experiments, the external bathing solution contained tetraethylammonium chloride (100 mM), choline chloride (52 mM), NaCl (15 mM), HEPES (10 mM), glucose (5.6 mM), CaCl2 (2 mM), and MgCl2 (0.8 mM) pH 7.35 with KOH; with the internal pipette solution containing cesium methane sulfonate (140 mM), EGTA (10 mM), and HEPES (10 mM), supplemented with 5 mM Mg^2+ -ATP on the day of the experiment, pH 7.4 with CsOH. For Na^+ and K^+ channel experiments, the external bathing solution contained NaCl (150 mM), KCl (5 mM), MgCl2 (1.1 mM), CaCl2 (2.6 mM), Na-HEPES (10 mM), and glucose (10 mM), pH 7.4; with the internal pipette solution containing KCl (80 mM), K-gluconate (50 mM), HEPES (10 mM), and EGTA (10 mM), pH 7.4 with KOH. Experimental compounds were diluted into the external solution and applied to the soma of cells by local perfusion from large diameter (20-50 μm) glass micropipettes or from a U-tube applicator.
After obtaining a whole-cell recording, Ca^2+ channels were elicited by stepping to test potentials between −40 and +20 mV for 120 msec from the holding potential of −90 mV to determine if the amplitude of the current and clamp control were adequate for evaluation of drug effects. Ca^2+ channel currents were evoked by stepping from a holding potentials between −65 mV and −−55 mV to a test potential of +20 mV for 150 msec every 40 seconds. The amplitude of the Ca^2+ channel currents were compared before and during drug application and drug effects expressed as percent inhibition of the amplitude of control currents.

[3] = test system: K+ channels in superior cervical ganglion (SCG) neurons; assay: Whole-cell voltage clamp, K+ current in SCG neurons; assay type: cell-based, rat; details: 10 μM
Method: as §1, §2, §3
(§4) For Na^+ and K^+ channel currents, following the determination of the I/V relationship for each cell in control solution, currents were evoked from a holding potential between −65 and −55 mV by stepping every 10 sec to a test potential of either 0 mV for Na^+ or +50 mV for K^+ current for a duration of 35 msec. Peak inward current was measured for Na^+ and sustained current for K^+ channel currents. […] Test compounds were applied until steady-state block was achieved. Data were expressed as percent inhibition of control amplitudes for Na^+ and K^+ channel currents.

[4] = test system: Na+ channels in superior cervical ganglion (SCG) neurons; assay: Whole-cell voltage clamp, Na+ current in SCG neurons; assay type: cell-based, rat; details: 10 μM
Method: as §1, §2, §3, §4

Compound | inhibition at 1 µM [1] [%] | inhibition at 10 µM [1] [%] | pIC50 [1] | melting point [°C] | inhibition at 10 µM [2] [%] | Inhibition of K+ Current, % Inhibition at 10 μM [3] [%] | Inhibition of Na+ Current, % Inhibition at 10 μM [4] [%] | pIC50 [2]
CC(C)C[C@H](NS(=O)(=O)N1CCCCCC1)C(=O)N[C@@H](Cc1ccc(OCc2ccccc2)cc1)C(=O)OC(C)(C)C [Example 40, [S-(R*,R*)]-2-[2-(Azepane-1-sulfonylamino)-4-methyl-pentanoylamino]-3-(4-benzyloxy-phenyl)-propionic acid tert-butyl ester] | 48 | 86 | 6.00 | 123 to 124 |  |  |  | 
COc1ccc(C[C@H](NC(=O)[C@H](CC(C)C)NC(=O)N2CCCCCC2)C(=O)OC(C)(C)C)cc1 [Example 13, [S-(R*,R*)]-2-{2-[(Azepane-1-carbonyl)-amino]-4-methyl-pentanoylamino}-3-(4-methoxy-phenyl)-propionic acid tert-butyl ester] | 40 | 86 | 5.77 | 105 to 106 |  |  |  | 
CC(C)C[C@H](NC(=S)Nc1ccccc1Cl)C(=O)N[C@@H](Cc1ccc(OCc2ccccc2)cc1)C(=O)OC(C)(C)C [Example 48, [S-(R*,R*)]-3-(4-Benzyloxy-phenyl)-2-{2-[3-(2-chloro-phenyl)-thioureido]-4-methyl-pentanoylamino}-propionic acid tert-butyl ester] | 52 | 81 | 5.92 | 66 to 67 |  |  |  | 
CC(C)C[C@H](NC(=O)N1CCCCCC1)C(=O)N[C@](C)(Cc1ccc(OCc2ccccc2)cc1)C(=O)OC(C)(C)C [Example 11B, 2(R)-{2(S)-[(Azepane-1-carbonyl)-amino]-4-methyl-pentanoylamino}-3-(4-benzyloxy-phenyl)-2-methyl-propionic acid tert-butyl ester] | 35 | 80 | 5.64 | 62 to 66 | 17 | 46 | 48 | 
CC(C)C[C@H](NS(=O)(=O)N1CCCCC1)C(=O)N[C@@H](Cc1ccc(OCc2ccccc2)cc1)C(=O)OC(C)(C)C [Example 41, [S-(R*,R*)]-3-(4-Benzyloxy-phenyl)-2-[4-methyl-2-(piperidine-1-sulfonylamino)-pentanoylamino]-propionic acid tert-butyl ester] | 51 | 86 | 6.10 | 125 to 126 |  |  |  | 
CCC(C)[C@H](NC(=O)N1CCCCCC1)C(=O)N[C@@H](Cc1ccc(OCc2ccccc2)cc1)C(=O)OC(C)(C)C (stereo partly drawn) [Example 5, (S)-2-{(S)-2-[(Azepane-1-carbonyl)-amino]-3-methyl-pentanoylamino}-3-(4-benzyloxy-phenyl)-propionic acid tert-butyl ester] | 60 | 94 | 6.09 | 53 to 57 | 70 | 13 | 10 | 6.21
CC(C)C[C@H](NS(=O)(=O)c1ccc(Br)cc1)C(=O)N[C@@H](Cc1ccc(OCc2ccccc2)cc1)C(=O)OC(C)(C)C [Example 38, [S-(R*,R*)]-2-{2-[(4-Bromobenzene-1-sulfonyl-carbonyl)-amino]-4-methyl-pentanoylamino-3-(4-benzyloxyphenyl)-propionic acid, tert-butyl ester] | 48 | 83 | 6.03 | 148 to 149 |  |  |  | 
CC(C)C[C@H](NC(=S)NC1CCCCC1)C(=O)N[C@@H](Cc1ccc(OCc2ccccc2)cc1)C(=O)OC(C)(C)C [Example 47, [S-(R*,R*)]-3-(4-benzyloxy-phenyl)-2-[2-(3-cyclohexyl-thioureido)-4-methyl-pentanoylamino}-propionic acid, tert-butyl ester] | 42 | 63 | 5.89 | 161 to 162 |  |  |  | 
CC(C)C[C@H](NC(=O)N1CCCCCC1)C(=O)N[C@@H](Cc1ccc(OC(C)(C)C)cc1)C(=O)OC(C)(C)C [Example 12, [S-(R*,R*)]-2-{2-[(Azepane-1-carbonyl)-amino]-4-methyl-pentanoylamino}-3-(4-tert-butoxy-phenyl)-propionic acid tert-butyl ester] | 57 | 95 | 6.32 | 87 to 90 | 65 | 38 | 14 | 5.17
CC(C)C[C@H](NS(=O)(=O)N1CCOCC1)C(=O)N[C@@H](Cc1ccc(OCc2ccccc2)cc1)C(=O)OC(C)(C)C [Example 42, [S-(R*,R*)]-3-(4-Benzyloxy-phenyl)-2-[4-methyl-2-(morpholine-4-sulfonylamino)-pentanoylamino]-propionic acid tert-butyl ester] | 50 | 95 | 6.02 | 54 to 57 | 64 |  |  | 
COC(=O)[C@H](Cc1ccc(OCc2ccccc2)cc1)NC(=O)[C@H](CC(C)C)NC(=O)N1CCCCCC1 [Example 15, [S-(R*,R*)]-2-{2-[(Azepane-1-carbonyl)-amino]-4-methyl-pentanoylamino}-3-(4-benzyloxy-phenyl)-propionic acid methyl ester] | 45 | 99 | 5.96 | 72 to 74 |  |  |  | 
CC(C)C[C@H](NS(=O)(=O)c1ccc(C(C)C)cc1)C(=O)N[C@@H](Cc1ccc(OCc2ccccc2)cc1)C(=O)OC(C)(C)C [Example 37, [S-(R*,R*)]-3-(4-Benzyloxy-phenyl)-2(S)-[2(S)-(4-isopropyl-benzenesulfonylamino)-4-methyl-pentanoylamino]-propionic acid tert-butyl ester] | 65 | 91 | 6.55 | 147 to 148 |  | 9 | 5 | 
CC(C)C[C@H](NC(=O)N1CCN(c2ccccc2)CC1)C(=O)N[C@@H](Cc1ccc(OCc2ccccc2)cc1)C(=O)OC(C)(C)C [Example 10, [S-(R*,R*)]-3-(4-Benzyloxy-phenyl)-2-{4-methyl-2-[(4-phenyl-piperazine-1-carbonyl)-amino]-pentanoylamino}-propionic acid tert-butyl ester] | 46 | 73 | 5.68 | 67 to 69 |  |  |  | 
